Key:
Type in all cases: cell-based
[1] = test system: NHEJ repair activity in 293T cells; test: NHEJ repair activity by CRISPR/Cas9-induced HPRT mutation with siRNA co-transfection, 6-TG selection and MTT cell viability; conditions: CRISPR/Cas9, 3 μg siRNA co-transfected, versus negative control siRNA
Protocol: The inhibiting effect of DNA-PKcs siRNA on NHEJ was determined by using a CRISPR/Cas9 technology, and the specific steps comprise:
(1) a Cas9/gRNA plasmid was constructed for HPRT gene, and the specific steps are as described in the embodiment 2.
(2) the Cas9/gRNA plasmid and DNA-PKcs siRNA were co-transfected into 293T cells. The specific steps comprise: 293T cells were inoculated into a culture dish of 6 cm, and 3 μg Cas9/gRNA plasmid and 3 μg DNA-PKcs siRNA were co-transfected into the 293T cells by using Lipofectamine 3000 when cell density reached 70%, and a negative control siRNA was transfected for the negative control group. The gene sequence of DNA-PKcs siRNA was […] (SEQ ID NO:5).
(3) the cells were treated with 6-TG. The specific steps comprise: the cells were inoculated into a 96-well plate after the transfection is performed for 24 h, then the culture medium was replaced with a DMEM culture medium containing 30 μmol/L 6-TG after cell attachment, and the cells were continually cultured for 72 h.
(§1) (4) cell viability was determined by a MTT method. The specific steps comprise: a MTT solution was added after the treatment was completed, 2 h later, the formed blue formazan particles were dissolved with DMSO, and then the light absorption value of each well was determined at OD570 nm via a microplate reader. […]

[2] = test system: NHEJ repair activity in 293T cells; test: NHEJ repair activity by TALEN-induced HPRT mutation, 6-TG selection and MTT cell viability; conditions: for inhibition rate of NHEJ repair activity: then 30 μmol/L 6-TG 72 h
Protocol: The inhibiting effects of different concentrations of NU7441 on NHEJ are determined by using the TALEN technology, and the specific steps are as follows:
(1) a TALEN plasmid for HPRT gene was constructed. The specific steps comprise: a left-arm recognition sequence ATGACCTTGATTTA (SEQ ID NO:1) and a right-arm recognition sequence CCAAATCCTCAGCA (SEQ ID NO:2) of the target HPRT gene were designed according to the TALEN design principle, and the two recognition sequences were inserted into a corresponding backbone carrier according to the method indicated on the TALEN construction kit. Competent E. coli cells were transformed with the carrier, uniformly spread on a kanamycin-resistant (20 μg/ml) plate and cultured in an incubator at 37° C. for 12-16 h, then 3-5 clones were selected and inoculated in 5 ml LB culture solution (containing 20 μg/ml kanamycin), and cultured in a shaker at 250 rpm under 37° C. for 16 h, plasmids were extracted and sequenced, and the obtained sequences were compared with the designed recognition sequences, ensuring the left-arm and right-arm TALEN plasmids with correct sequences were obtained.
(2) the left-arm and right-arm TALEN plasmids were transfected into 293T cells. The specific steps comprise: 293T cells were inoculated into a culture dish of 6 cm, and 4 μg left-arm plasmids and 4 μg right-arm plasmids were transfected into the 293T cells by using Lipofectamine 3000 when cell density reached 70%.
(3) the 293T cells were treated with different concentrations of the inhibitor NU7441. […]
as §1, with “(5)” for “(4)”

[3] = test system: NHEJ repair activity in 293T cells; test: NHEJ repair activity by CRISPR/Cas9-induced HPRT mutation, 6-TG selection and MTT cell viability (NU7441 treatment time)
Protocol: The time dependence of the inhibiting effect of 2.0 μmol/L NU7441 on NHEJ was determined by using the CRISPR/Cas9 technology, specific steps were as follows:
(1) a Cas9/gRNA plasmid was constructed for HPRT gene. The specific steps comprise: a target site primer of HPRT was designed according to a gRNA design principle, wherein the forward primer is […] (SEQ ID NO:3), and the reverse primer is […] (SEQ ID NO:4). The primers were annealed to form a dimer, and the gRNA-sequence primer dimer was inserted into a Cas9/gRNA plasmid according to the method indicated on the CRISPR/Cas9 construction kit. Competent E. coli cells were transformed with the plasmid, spread on an ampicillin-resistant plate. 3-5 clones were selected and cultured in a shaker, plasmids were extracted and sequenced, and the obtained sequences were compared with the designed recognition sequences, ensuring the Cas9/gRNA plasmids with correct sequences were obtained.
(2) the Cas9/gRNA plasmids were transfected into 293T cells. […]
as §1, with “(5)” for “(4)”

Compound	repair activity of NHEJ [1]	inhibition rate of NHEJ repair activity ([2]; 0.5 μmol/L for 4 h)	inhibition rate of NHEJ repair activity ([2]; 1.0 μmol/L for 4 h)	inhibiting effect on NHEJ repair activity ([2]; concentration increased to 2.0 μmol/L, 4 h (compared with 0.5, 1.0 μmol/L))	inhibition rate of NHEJ repair activity ([3]; CRISPR/Cas9, 2.0 μmol/L for 1 h, then 30 μmol/L 6-TG 72 h)	inhibiting effect on NHEJ activity ([3]; CRISPR/Cas9, 2.0 μmol/L, treatment longer than 1 h (2 and 4 h))
DNA-PKcs siRNA: siRNA of the NHEJ repair molecule DNA-PKcs, sequence UUCUCCGAACGUGUCACGUTT (SEQ ID NO:5), synthesized by GenePharma (chemistry not given here)	inhibited significantly	–	–	–	–	–
O=c1cc(N2CCOCC2)oc2c(-c3cccc4c3sc3ccccc34)cccc12 [NU7441]	–	about 50%	about 50%	the inhibiting effect was reduced	about 50%	reduced over time

Reference: patent publication US9863933B2, “Method for determining the repair activity of non-homologous end joining” (Soochow University, priority 2015, dated 2018)
